Results from ChEMBL document CHEMBL1201862, “PubChem BioAssay data set” (2004).
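Exposure lasted 48 hours, with cells grown in 96-well plates and compounds tested at five concentrations. GI50 = concentration required for 50% inhibition of growth.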 Activity calls are given as the source filed them. Cut-off read from the data, not from the text of the source: active = GI50 up to about 1.1 µM and inactive = higher.

Legend:
Experiment in all cases: NCI-60 cell line screen, 48 h
[1] = tested on: SN12C
[2] = tested on: ACHN
[3] = tested on: SNB-19
[4] = tested on: UO-31
[5] = tested on: SK-MEL-28
[6] = tested on: HCT-116
[7] = tested on: OVCAR-4
[8] = tested on: SK-MEL-5
[9] = tested on: A498
[10] = tested on: Hs-578T
[11] = tested on: SF-268
[12] = tested on: OVCAR-8
[13] = tested on: MCF7
[14] = tested on: MDA-MB-231
[15] = tested on: A549
[16] = tested on: CAKI-1
[17] = tested on: NCI-H23
[18] = tested on: NCI-H460
[19] = tested on: HT-29
[20] = tested on: SNB-75
[21] = tested on: UACC-257
[22] = tested on: RXF 393
[23] = tested on: M14
[24] = tested on: CCRF-CEM
[25] = tested on: NCI/ADR-RES
[26] = tested on: MDA-MB-435
[27] = tested on: U-251
[28] = tested on: PC-3
[29] = tested on: UACC-62
[30] = tested on: EKVX
[31] = tested on: IGROV-1
[32] = tested on: HCT-15
[33] = tested on: HCC 2998
[34] = tested on: Malme-3M
[35] = tested on: RPMI-8226
[36] = tested on: NCI-H226
[37] = tested on: OVCAR-5
[38] = tested on: KM12
[39] = tested on: TK-10
[40] = tested on: HL-60
[41] = tested on: SK-MEL-2
[42] = tested on: SW-620
[43] = tested on: NCI-H522
[44] = tested on: SF-295
[45] = tested on: T47D
[46] = tested on: K562
[47] = tested on: MOLT-4
[48] = tested on: SF-539
[49] = tested on: LOX IMVI
[50] = tested on: OVCAR-3
[51] = tested on: 786-0
[52] = tested on: SK-OV-3
[53] = tested on: COLO 205
[54] = tested on: SR
[55] = tested on: MDA-N
[56] = tested on: HOP-62
[57] = tested on: DU-145
[58] = tested on: HOP-92

Cc1ccc([N+](=O)[O-])cc1NC1=NCCO1
GI50 [1]: > 100 µM (inactive)
GI50 [2]: > 100 µM (inactive)
GI50 [3]: > 100 µM (inactive)
GI50 [4]: > 100 µM (inactive)
GI50 [5]: > 100 µM (inactive)
GI50 [6]: > 100 µM (inactive)
GI50 [7]: > 100 µM (inactive)
GI50 [8]: > 100 µM (inactive)
GI50 [9]: > 100 µM (inactive)
GI50 [10]: > 100 µM (inactive)
GI50 [11]: > 100 µM (inactive)
GI50 [12]: > 100 µM (inactive)
GI50 [13]: > 100 µM (inactive)
GI50 [14]: > 100 µM (inactive)
GI50 [15]: > 100 µM (inactive)
GI50 [16]: > 100 µM (inactive)
GI50 [17]: > 100 µM (inactive)
GI50 [18]: > 100 µM (inactive)
GI50 [19]: > 100 µM (inactive)
GI50 [20]: > 100 µM (inactive)
GI50 [21]: > 100 µM (inactive)
GI50 [22]: > 100 µM (inactive)
GI50 [23]: > 100 µM (inactive)
GI50 [24]: > 100 µM (inactive)
GI50 [25]: > 100 µM (inactive)
GI50 [26]: > 100 µM (inactive)
GI50 [27]: > 100 µM (inactive)
GI50 [28]: > 100 µM (inactive)
GI50 [29]: > 100 µM (inactive)
GI50 [30]: > 100 µM (inactive)
GI50 [31]: > 100 µM (inactive)
GI50 [32]: > 100 µM
GI50 [33]: > 100 µM (inactive)
GI50 [34]: > 100 µM (inactive)
GI50 [35]: > 100 µM (inactive)
GI50 [36]: > 100 µM (inactive)
GI50 [37]: > 100 µM (inactive)
GI50 [38]: > 100 µM (inactive)
GI50 [39]: > 100 µM (inactive)
GI50 [40]: > 100 µM (inactive)
GI50 [41]: > 100 µM (inactive)
GI50 [42]: > 100 µM (inactive)
GI50 [43]: > 100 µM (inactive)
GI50 [44]: > 100 µM (inactive)
GI50 [45]: > 100 µM (inactive)
GI50 [46]: > 100 µM (inactive)
GI50 [47]: > 100 µM (inactive)
GI50 [48]: > 100 µM (inactive)
GI50 [49]: > 100 µM (inactive)
GI50 [50]: > 100 µM (inactive)
GI50 [51]: > 100 µM (inactive)
GI50 [52]: > 100 µM (inactive)
GI50 [53]: > 100 µM (inactive)
GI50 [54]: 45.8 µM (inactive)
GI50 [55]: > 100 µM (inactive)
GI50 [56]: > 100 µM (inactive)
GI50 [57]: > 100 µM (inactive)

CC(C)(C)C(=O)Oc1ccc(/C=C/C(=O)c2ccc(OC(=O)C(C)(C)C)cc2)cc1
GI50 [1]: 42.8 µM (inactive)
GI50 [2]: > 100 µM (inactive)
GI50 [58]: > 100 µM (inactive)
GI50 [3]: 45.2 µM (inactive)
GI50 [5]: 97.3 µM (inactive)
GI50 [6]: 23.3 µM (inactive)
GI50 [7]: 56.2 µM (inactive)
GI50 [8]: > 100 µM (inactive)
GI50 [9]: 81.5 µM (inactive)
GI50 [10]: 18 µM (inactive)
GI50 [11]: 74 µM (inactive)
GI50 [12]: 40.4 µM (inactive)
GI50 [13]: 46.5 µM (inactive)
GI50 [14]: > 100 µM (inactive)
GI50 [15]: 67.6 µM (inactive)
GI50 [16]: 21.1 µM (inactive)
GI50 [17]: 35.7 µM (inactive)
GI50 [18]: > 100 µM (inactive)
GI50 [19]: 47.3 µM (inactive)
GI50 [20]: 64.9 µM (inactive)
GI50 [21]: 60.5 µM (inactive)
GI50 [22]: 38.8 µM (inactive)
GI50 [23]: > 100 µM (inactive)
GI50 [24]: 6.53 µM (inactive)
GI50 [25]: 27.5 µM (inactive)
GI50 [26]: 55.2 µM (inactive)
GI50 [27]: 40.2 µM (inactive)
GI50 [28]: > 100 µM (inactive)
GI50 [29]: > 100 µM (inactive)
GI50 [30]: 81.1 µM (inactive)
GI50 [31]: > 100 µM (inactive)
GI50 [32]: 96.4 µM
GI50 [33]: > 100 µM (inactive)
GI50 [34]: > 100 µM (inactive)
GI50 [36]: > 100 µM (inactive)
GI50 [37]: > 100 µM (inactive)
GI50 [38]: 16.6 µM (inactive)
GI50 [39]: > 100 µM (inactive)
GI50 [40]: 47 µM (inactive)
GI50 [41]: > 100 µM (inactive)
GI50 [42]: > 100 µM (inactive)
GI50 [43]: 3.12 µM (inactive)
GI50 [44]: 93.3 µM (inactive)
GI50 [45]: 91.2 µM (inactive)
GI50 [46]: 26.3 µM (inactive)
GI50 [47]: 24.4 µM (inactive)
GI50 [48]: 33 µM (inactive)
GI50 [49]: 44.5 µM (inactive)
GI50 [50]: 27.5 µM (inactive)
GI50 [51]: 36.7 µM (inactive)
GI50 [52]: > 100 µM (inactive)
GI50 [53]: 69.7 µM (inactive)
GI50 [54]: 20.7 µM (inactive)
GI50 [55]: 39.1 µM (inactive)
GI50 [56]: 82.2 µM (inactive)
GI50 [57]: 41 µM (inactive)

Cc1c(-c2ccccn2)ccc2ccccc12
GI50 [1]: 61.1 µM (inactive)
GI50 [2]: 52.7 µM (inactive)
GI50 [58]: 23 µM (inactive)
GI50 [3]: > 100 µM (inactive)
GI50 [4]: 32.7 µM (inactive)
GI50 [5]: 85.5 µM (inactive)
GI50 [6]: 43.4 µM (inactive)
GI50 [8]: 35.7 µM (inactive)
GI50 [9]: > 100 µM (inactive)
GI50 [10]: > 100 µM (inactive)
GI50 [11]: 54 µM (inactive)
GI50 [12]: 26.4 µM (inactive)
GI50 [13]: 88.7 µM (inactive)
GI50 [14]: 44.6 µM (inactive)
GI50 [15]: 69.5 µM (inactive)
GI50 [16]: 45 µM (inactive)
GI50 [17]: 90.2 µM (inactive)
GI50 [18]: 42.4 µM (inactive)
GI50 [19]: 41.7 µM (inactive)
GI50 [20]: 27.9 µM (inactive)
GI50 [21]: > 100 µM (inactive)
GI50 [22]: 29.1 µM (inactive)
GI50 [23]: > 100 µM (inactive)
GI50 [24]: 28.2 µM (inactive)
GI50 [25]: 45.9 µM (inactive)
GI50 [26]: 48.5 µM (inactive)
GI50 [27]: 93.5 µM (inactive)
GI50 [28]: 47.3 µM (inactive)
GI50 [29]: 47.1 µM (inactive)
GI50 [30]: 52.6 µM (inactive)
GI50 [32]: 27.7 µM
GI50 [33]: 37.8 µM (inactive)
GI50 [34]: 69.7 µM (inactive)
GI50 [35]: 19 µM (inactive)
GI50 [36]: 43 µM (inactive)
GI50 [37]: > 100 µM (inactive)
GI50 [38]: 82.8 µM (inactive)
GI50 [39]: 45.2 µM (inactive)
GI50 [40]: 44.6 µM (inactive)
GI50 [42]: 80.4 µM (inactive)
GI50 [44]: 83.8 µM (inactive)
GI50 [45]: 39.2 µM (inactive)
GI50 [46]: 71 µM (inactive)
GI50 [47]: 90.2 µM (inactive)
GI50 [48]: > 100 µM (inactive)
GI50 [49]: 93.3 µM (inactive)
GI50 [50]: 41.4 µM (inactive)
GI50 [51]: 77.3 µM (inactive)
GI50 [52]: > 100 µM (inactive)
GI50 [53]: 41.4 µM (inactive)
GI50 [54]: 56.1 µM (inactive)
GI50 [55]: 61 µM (inactive)
GI50 [56]: > 100 µM (inactive)
GI50 [57]: > 100 µM (inactive)
